The source of these data is publication PMC11982498 (Redox Biology, 2025).

The structures appear in SMILES notation. Where only a bound is given, the exact number is not on record here.

Assay [1] concerns bio-BCL-2 (BCL-2 IM) (DNA, i motif) CAGCCCCGCTCCCGCCCCCTTCCTCCCGCGCCCGCCCCT
The experiment in a line: SPR. Conditions: K+ 100 mM; 20 mM MES, pH 5.5, 25 °C.

Assay [2] concerns the target BCL-2 gene promoter i-motif. The experiment in a line: SPR binding to BCL-2 promoter i-motif. The following applies: MES buffer pH 5.5, 25 °C. How it is done: SPR measurement was performed on a ProteOn XPR36 protein interaction array system (Bio-Rad Laboratories, Hercules, California, USA) using a Neutravidin-coated GLH sensor chip. BCL-2 i-motif binding analysis was performed following a published method without significant modification. For immobilization, 5′-biotin-labeled DNA oligomers at 800 nM annealed in 1 × MES buffer at pH 5.5 by heating at 95 °C for 5 min, were attached to a reptavidin-coated sensor chip. Compounds were prepared through serial dilution with flowing buffer (20 mM MES, 100 mM KCl, pH 5.5 for i-motif) in at least 6 concentrations, which were simultaneously injected at a flow rate of […] for a 120 s of association phase, followed by 250 s of dissociation phase at 25 °C. Langmuir model was used for fitting kinetic data, which was analyzed with ProteOn manager software. KD values were determined through equation KD = kd/ka. Compound A22 was used as a positive control, and other compounds were selected as candidates only if their KD values for binding to BCL-2 i-motif were similar to that of A22.

Assay [3] concerns the target T1, Aβ1-42 (Homo sapiens, UniProt P05067).
T1 construct: Aβ1-42 was purchased from Gill Biochemicals Ltd (Shanghai, China); purchased Gill Biochemicals Ltd (Shanghai, China)
The experiment in a line: Congo red binding assay. Type of assay: biochemical. Conditions: 20 μM compound, 72 h. How it is done: A total of 30 μM Congo red (Aladdin, Shanghai, China) solution (20 mM potassium phosphate, 50 mM NaCl, pH 7.4) was prepared and filtered with a 0.45 μm filter. The Aβ1-42 solutions (30 μM) were co-incubated with B14 (20 μM), A22 (20 μM), or Curcumin (20 μM) at 37 °C protected from light for 72h. The Aβ1-42 solution was mixed with equal volume of Congo red solution, followed by incubation for 30 min. A spectral region from 400 nm to 650 nm was measured by using a UV–vis spectrophotometer (AoE, China).
A total of 30 μM Congo red solution (20 mM potassium phosphate, 50 mM NaCl, pH 7.4) was prepared and filtered with a 0.45 μm filter. The Aβ1-42 solutions (30 μM) were co-incubated with B14 (20 μM) and Curcumin (20 μM) at 37 °C protected from light for 72h. The Aβ1-42 solution was mixed with equal volume of Congo red solution and incubated for 30 min. A spectral region from 400 nm to 650 nm was analyzed by using a UV-vis spectrophotometer (AoE, China).

Assay [4] addresses T1, Aβ1-42. The experiment in a line: Thioflavine T fluorescence spectroscopy assay (time course to 96 h). Type of assay: biochemical. The following applies: 20 μM compound, Aβ1-42 incubated for 96 h. How it is done:
The Aβ1-42 solutions (100 μM) were co-incubated with B14 (20 μM) or Curcumin (20 μM) at 37 °C protected from light for 96 h. 30 μL of Aβ1-42 solution was taken at different time points (0 h, 10 h, 24 h, 48 h, 72 h, 96 h), mixed fully with 400 μL of ThT solution (15 μM), and incubated in the dark for 30 min. The fluorescence signal was recorded by using a Cary Eclipse fluorescence spectrophotometer (Varian, USA) with the following setting: excitation wavelength at 440 nm, emission wavelength at 480 nm, and slit width of 20 nm.
The Aβ1-42 solutions (100 μM) were co-incubated with B14 (20 μM) and Curcumin (20 μM) at 37 °C protected from light for 96 h. 30 μL of Aβ1-42 solutions were taken at different time points (0 h, 10 h, 24 h, 48 h, 72 h, 96 h), mixed fully with 400 μL of ThT solution (15 μM), and incubated in the dark for 30 min. The fluorescence signal was recorded by a Cary Eclipse fluorescence spectrophotometer (Varian, USA) with excitation wavelength at 440 nm, emission wavelength at 480 nm, and slit width of 20 nm.

Assay [5] deals with T1, Aβ1-42. The experiment in a line: Dot blot of Aβ1-42 fibril aggregation. Conditions: 20 μM compound, 24 h. Type of assay: biochemical.
Description: After incubation at 37 °C for 24 h, 10 μL aliquots of 20 μM Aβ1-42 reaction mixtures were spotted onto nitrocellulose membranes. Membranes were blocked for 2 h with 5 % non-fat milk in TBS. After washing, membranes were incubated with the anti-Aβ fibril antibody (1:1,000, CST, USA) dissolved in TBS containing 3 % bovine serum albumin (BSA, Beyotime, Jiangsu, China) and 0.01 % Tween-20 (Solarbio, Beijing, China), and developed using an alkaline-phosphatase anti-rabbit secondary antibody (1:5,000, Proteintech, China). The bands were then detected using an enhanced chemiluminescence (ECL) kit (Millipore, USA).
After incubation at 37 °C for 24h, 10 μL aliquots of 20 μM Aβ1-42 reactions were spotted onto nitrocellulose membranes. The membranes were blocked for 2 h with 5% non-fat milk in TBS. After washing, the membranes were incubated with the anti-Aβ fibril antibody (1:1000 dilution) dissolved in TBS containing 3% BSA and 0.01% Tween-20, and then developed using an alkaline-phosphatase antirabbit secondary antibody (1:5000 dilution). Invitrogen's Western Breeze Chemiluminescent kit was used to visualize the protein dots, and these dots were imaged using a FUJIFILM Luminescent Image Analyzer LAS-1000CH.

T1 sequence (P05067 672-713 limits assumed): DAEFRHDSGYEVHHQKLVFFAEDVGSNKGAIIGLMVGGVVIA

Molecule `CC1CCN(CCC(=O)Nc2ccc3c(c2)c(=O)c2ccccc2n3-c2ccc3occc3c2)CC1` gave a KD in assay [1] of more than 50 µM.

In the case of `CCN(CC)CCC(=O)Nc1ccc2c(c1)c(=O)c1ccccc1n2-c1ccc2occc2c1`, the dissociation constant (KD) in assay [1] was more than 50 µM.

In assay [1], `CN(C)CCC(=O)Nc1ccc2c(c1)c(=O)c1ccccc1n2-c1ccc2occc2c1` showed a dissociation constant (KD) of more than 50 µM.

For the molecule `CN1CCN(CCC(=O)Nc2ccc3c(c2)c(=O)c2ccccc2n3-c2ccc3occc3c2)CC1`, in assay [1], the KD is more than 50 µM.

In turn, `CN1CCN(CCCNc2ccc3c(c2)c(=O)c2cc(NCCCN4CCN(C)CC4)ccc2n3-c2ccc3occc3c2)CC1` registered a dissociation constant (KD) in assay [1] of more than 50 µM.

`CCN(CC)CCCNc1ccc2c(c1)c(=O)c1ccccc1n2-c1ccc2occc2c1` [Compound A1] came in with a Kd in assay [2] of more than 50 µM.

The molecule `CN(C)CCCNc1ccc2c(c1)c(=O)c1ccccc1n2-c1ccc2occc2c1` [Compound A2] had a KD in assay [1] of more than 50 µM. Also, the Kd in assay [2] is more than 50 µM.

Consider `O=c1c2ccccc2n(-c2ccc3occc3c2)c2ccc(NCCN3CCNCC3)cc12` [Compound A3], for which, in assay [1], the KD was more than 50 µM. For the same molecule, the Kd in assay [2] is more than 50 µM.

As to `CN1CCN(CCCNc2ccc3c(c2)c(=O)c2ccccc2n3-c2ccc3occc3c2)CC1` [Compound A4], the KD in assay [1] is more than 50 µM. Further, the Kd in assay [2] was more than 50 µM.

Regarding `O=c1c2ccccc2n(-c2ccc3occc3c2)c2ccc(NCCCN3CCOCC3)cc12` [Compound A5], the dissociation constant (KD) in assay [1] is more than 50 µM. This molecule also yielded an equilibrium dissociation constant (Kd) in assay [2] of more than 50 µM.

As for `O=c1c2ccccc2n(-c2ccc3occc3c2)c2ccc(NCCN3CCOCC3)cc12` [Compound A6], the KD in assay [1] is more than 50 µM. Besides, the Kd in assay [2] was more than 50 µM.

In assay [1], `O=c1c2ccccc2n(-c2ccc3occc3c2)c2ccc(NCCCN3CCCC3)cc12` [Compound A7] came in with a dissociation constant KD of more than 50 µM. Moreover, the dissociation constant (Kd) in assay [2] is more than 50 µM.

`CN(C)CCNc1ccc2c(c1)c(=O)c1ccccc1n2-c1ccc2occc2c1` [Compound A8] displayed a KD in assay [1] of more than 50 µM. In assay [2], this molecule gave an equilibrium dissociation constant (Kd) of more than 50 µM.

Molecule `CCN(CC)CCNc1ccc2c(c1)c(=O)c1ccccc1n2-c1ccc2occc2c1` [Compound A9] came in with a dissociation constant KD in assay [1] of 34.1 µM. Moreover, in assay [2], the Kd came to 34.1 µM.

In assay [1], `O=c1c2ccccc2n(-c2ccc3occc3c2)c2ccc(NCCc3ccccn3)cc12` [Compound A10] gave a KD of more than 50 µM. The molecule also gave a dissociation constant Kd in assay [2] of more than 50 µM.

In assay [1], `O=C(CCCN1CCOCC1)Nc1ccc2c(c1)c(=O)c1ccccc1n2-c1ccc2occc2c1` [Compound A11] showed a KD of more than 50 µM. Also, the Kd in assay [2] was more than 50 µM.

As for `CC1CCN(C=CC(=O)Nc2ccc3c(c2)c(=O)c2ccccc2n3-c2ccc3occc3c2)CC1` [Compound A12], the dissociation constant (Kd) in assay [2] is more than 50 µM.

With `CCN(C=CC(=O)Nc1ccc2c(c1)c(=O)c1ccccc1n2-c1ccc2occc2c1)CC` [Compound A13], the Kd in assay [2] is more than 50 µM.

The molecule `CN(C)C=CC(=O)Nc1ccc2c(c1)c(=O)c1ccccc1n2-c1ccc2occc2c1` [Compound A14] showed a dissociation constant Kd in assay [2] of more than 50 µM.

In assay [2], `CN1CCN(C=CC(=O)Nc2ccc3c(c2)c(=O)c2ccccc2n3-c2ccc3occc3c2)CC1` [Compound A15] yielded a Kd of more than 50 µM.

`O=C(CCN1CCOCC1)Nc1ccc2c(c1)c(=O)c1ccccc1n2-c1ccc2occc2c1` [Compound A16] had a Kd in assay [2] of more than 50 µM.

The molecule `CCN(CC)CCCNc1ccc2c(c1)c(=O)c1cc(NCCCN(CC)CC)ccc1n2-c1ccc2occc2c1` [Compound B1] returned a Kd in assay [2] of more than 50 µM.

Molecule `CN(C)CCCNc1ccc2c(c1)c(=O)c1cc(NCCCN(C)C)ccc1n2-c1ccc2occc2c1` [Compound B2] registered an equilibrium dissociation constant (KD) in assay [1] of more than 50 µM. The same molecule had a Kd in assay [2] of more than 50 µM.

In the case of `O=c1c2cc(NCCN3CCNCC3)ccc2n(-c2ccc3occc3c2)c2ccc(NCCN3CCNCC3)cc12` [Compound B3], in assay [1], the KD was more than 50 µM. In assay [2], this molecule had a Kd of more than 50 µM.

Regarding `CN1CCN(CCCNc2ccc3c(c2)C(=O)c2cc(NCCCN4CCN(C)CC4)ccc2C3c2ccc3occc3c2)CC1` [Compound B4], the dissociation constant (Kd) in assay [2] is more than 50 µM.

For `O=c1c2cc(NCCCN3CCOCC3)ccc2n(-c2ccc3occc3c2)c2ccc(NCCCN3CCOCC3)cc12` [Compound B5], the equilibrium dissociation constant (KD) in assay [1] was more than 50 µM. The same molecule gave a Kd in assay [2] of more than 50 µM.

`O=c1c2cc(NCCN3CCOCC3)ccc2n(-c2ccc3occc3c2)c2ccc(NCCN3CCOCC3)cc12` [Compound B6] displayed a dissociation constant KD in assay [1] of more than 50 µM. The dissociation constant Kd in assay [2] is more than 50 µM.

Turning to `O=c1c2cc(NCCCN3CCCC3)ccc2n(-c2ccc3occc3c2)c2ccc(NCCCN3CCCC3)cc12` [Compound B7], in assay [1], the KD is more than 50 µM. In assay [2], this molecule returned a Kd of more than 50 µM.

Take `CN(C)CCNc1ccc2c(c1)c(=O)c1cc(NCCN(C)C)ccc1n2-c1ccc2occc2c1` [Compound B8]: the KD in assay [1] was more than 50 µM. This molecule also returned a dissociation constant (Kd) in assay [2] of more than 50 µM.

Regarding `CCN(CC)CCNc1ccc2c(c1)c(=O)c1cc(NCCN(CC)CC)ccc1n2-c1ccc2occc2c1` [Compound B9], the dissociation constant KD in assay [1] is more than 50 µM. Also, the equilibrium dissociation constant (Kd) in assay [2] was more than 50 µM.

`O=c1c2cc(NCCc3ccccn3)ccc2n(-c2ccc3occc3c2)c2ccc(NCCc3ccccn3)cc12` [Compound B10] displayed a dissociation constant KD in assay [1] of more than 50 µM. This molecule also displayed a dissociation constant (Kd) in assay [2] of more than 50 µM.

Regarding `O=C(CCCN1CCOCC1)Nc1ccc2c(c1)c(=O)c1cc(NC(=O)CCCN3CCOCC3)ccc1n2-c1ccc2occc2c1` [Compound B11], the KD in assay [1] is more than 50 µM. The same molecule had a Kd in assay [2] of more than 50 µM.

Turning to `O=C(CCN1CCCC1)Nc1ccc2c(c1)c(=O)c1cc(NC(=O)CCN3CCCC3)ccc1n2-c1ccc2occc2c1` [Compound B12], the dissociation constant (KD) in assay [1] was more than 50 µM. In addition, the Kd in assay [2] is more than 50 µM.

In assay [1], `CCN(CC)CCC(=O)Nc1ccc2c(c1)c(=O)c1cc(NC(=O)CCN(CC)CC)ccc1n2-c1ccc2occc2c1` [Compound B13] registered a KD of more than 50 µM. This molecule came in with a Kd in assay [2] of more than 50 µM.

As to `COc1cc(/C=C/C(=O)CC(=O)/C=C/c2ccc(O)c(OC)c2)ccc1O` [Curcumin, reference compound], on Aβ1-42 [3], the “absorbance of Congo red in the Aβ1-42 sample” value is on record as “some inhibitory effect, but much lower than B14”. In addition, the “decrease of ThT fluorescence intensity” value at Aβ1-42 [4] turned out to be 20.83 ± 1.68%. Moreover, at Aβ1-42 [5], the “formation of Aβ fibers (dot blot)” value is on record as “relatively less significant effect compared with B14”.
